In ChEMBL document CHEMBL4800731, “Data for DCP probe JNJ-65355394” (2021):
Calls of active or inactive are those of the source. The calls are words filed in the database; no cut-off is given here.

Columns and labels:
[1] = molecular target: T1, 5-hydroxytryptamine receptor 1A (Homo sapiens) (UniProt P08908); experiment: h5HT1A Cerep panel
T1 sequence (whole entry): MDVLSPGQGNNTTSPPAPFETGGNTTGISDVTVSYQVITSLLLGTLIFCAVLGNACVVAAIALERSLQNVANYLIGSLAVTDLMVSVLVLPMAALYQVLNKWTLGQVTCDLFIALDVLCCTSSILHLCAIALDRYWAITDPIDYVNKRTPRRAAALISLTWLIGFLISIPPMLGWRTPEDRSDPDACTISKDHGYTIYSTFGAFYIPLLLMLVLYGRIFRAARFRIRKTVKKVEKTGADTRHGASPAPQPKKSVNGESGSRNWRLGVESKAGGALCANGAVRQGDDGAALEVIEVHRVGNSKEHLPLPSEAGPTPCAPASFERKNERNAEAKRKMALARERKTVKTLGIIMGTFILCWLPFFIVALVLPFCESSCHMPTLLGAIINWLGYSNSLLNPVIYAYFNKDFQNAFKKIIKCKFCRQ

[2] = molecular target: GABA-A receptor; anion channel (Rattus norvegicus) (UniProt O09028+P15431+P18506+P18508+P19969+P20236+P23574+P23576+P28471+P28473+P30191+P62813+P63079+P63138+Q91ZM7+Q9ES14); details: Compound concentration 10.0 uM
[3] = molecular target: Muscarinic acetylcholine receptor M4 (Homo sapiens) (UniProt P08173); details: Compound concentration 10.0 uM
[4] = molecular target: Delta-type opioid receptor (Homo sapiens) (UniProt P41143); details: Compound concentration 10.0 uM
Delta-type opioid receptor (Homo sapiens), sequence (P41143 whole entry): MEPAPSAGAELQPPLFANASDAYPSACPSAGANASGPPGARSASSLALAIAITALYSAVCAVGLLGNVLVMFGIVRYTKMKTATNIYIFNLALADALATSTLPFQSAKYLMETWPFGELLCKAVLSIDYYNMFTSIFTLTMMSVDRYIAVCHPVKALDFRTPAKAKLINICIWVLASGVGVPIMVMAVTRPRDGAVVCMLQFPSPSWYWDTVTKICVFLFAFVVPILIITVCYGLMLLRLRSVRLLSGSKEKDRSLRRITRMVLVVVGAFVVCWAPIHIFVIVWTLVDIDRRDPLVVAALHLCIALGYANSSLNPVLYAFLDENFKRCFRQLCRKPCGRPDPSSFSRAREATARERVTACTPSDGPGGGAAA

[5] = molecular target: Beta-2 adrenergic receptor (Homo sapiens) (UniProt P07550); details: Compound concentration 10.0 uM
Beta-2 adrenergic receptor (Homo sapiens), sequence (P07550 whole entry, looked up): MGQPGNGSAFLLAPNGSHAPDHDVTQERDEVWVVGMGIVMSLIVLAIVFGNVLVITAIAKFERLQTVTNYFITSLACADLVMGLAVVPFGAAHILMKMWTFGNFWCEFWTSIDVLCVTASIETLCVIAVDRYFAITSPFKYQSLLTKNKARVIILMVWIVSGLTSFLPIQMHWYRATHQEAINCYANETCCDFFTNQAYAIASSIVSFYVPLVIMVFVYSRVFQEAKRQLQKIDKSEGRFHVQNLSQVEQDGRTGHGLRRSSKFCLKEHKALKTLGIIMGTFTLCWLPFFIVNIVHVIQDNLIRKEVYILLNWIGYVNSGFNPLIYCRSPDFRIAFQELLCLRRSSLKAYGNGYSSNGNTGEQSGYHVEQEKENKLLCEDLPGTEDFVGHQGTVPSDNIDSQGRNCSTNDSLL

[6] = molecular target: 5-hydroxytryptamine receptor 7 (Homo sapiens) (UniProt P34969); details: Compound concentration 10.0 uM
5-hydroxytryptamine receptor 7 (Homo sapiens), sequence (P34969 whole entry): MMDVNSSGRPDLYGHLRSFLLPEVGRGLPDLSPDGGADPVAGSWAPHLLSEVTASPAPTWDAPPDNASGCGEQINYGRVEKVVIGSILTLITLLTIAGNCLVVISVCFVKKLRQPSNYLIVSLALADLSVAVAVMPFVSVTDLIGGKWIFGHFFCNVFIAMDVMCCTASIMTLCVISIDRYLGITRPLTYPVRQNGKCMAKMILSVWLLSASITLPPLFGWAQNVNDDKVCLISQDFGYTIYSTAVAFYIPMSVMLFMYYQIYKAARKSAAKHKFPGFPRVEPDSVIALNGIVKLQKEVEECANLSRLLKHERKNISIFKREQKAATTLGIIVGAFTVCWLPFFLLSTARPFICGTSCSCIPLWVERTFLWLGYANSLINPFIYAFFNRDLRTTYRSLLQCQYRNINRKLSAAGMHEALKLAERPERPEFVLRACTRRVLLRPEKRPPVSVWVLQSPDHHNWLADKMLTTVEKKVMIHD

[7] = molecular target: D(2) dopamine receptor (Homo sapiens) (UniProt P14416); details: Compound concentration 10.0 uM
[8] = molecular target: T2, Protein O-GlcNAcase (Homo sapiens, UniProt O60502); experiment: Fluorescence-based enzymatic assay
T2 sequence (O60502 whole entry): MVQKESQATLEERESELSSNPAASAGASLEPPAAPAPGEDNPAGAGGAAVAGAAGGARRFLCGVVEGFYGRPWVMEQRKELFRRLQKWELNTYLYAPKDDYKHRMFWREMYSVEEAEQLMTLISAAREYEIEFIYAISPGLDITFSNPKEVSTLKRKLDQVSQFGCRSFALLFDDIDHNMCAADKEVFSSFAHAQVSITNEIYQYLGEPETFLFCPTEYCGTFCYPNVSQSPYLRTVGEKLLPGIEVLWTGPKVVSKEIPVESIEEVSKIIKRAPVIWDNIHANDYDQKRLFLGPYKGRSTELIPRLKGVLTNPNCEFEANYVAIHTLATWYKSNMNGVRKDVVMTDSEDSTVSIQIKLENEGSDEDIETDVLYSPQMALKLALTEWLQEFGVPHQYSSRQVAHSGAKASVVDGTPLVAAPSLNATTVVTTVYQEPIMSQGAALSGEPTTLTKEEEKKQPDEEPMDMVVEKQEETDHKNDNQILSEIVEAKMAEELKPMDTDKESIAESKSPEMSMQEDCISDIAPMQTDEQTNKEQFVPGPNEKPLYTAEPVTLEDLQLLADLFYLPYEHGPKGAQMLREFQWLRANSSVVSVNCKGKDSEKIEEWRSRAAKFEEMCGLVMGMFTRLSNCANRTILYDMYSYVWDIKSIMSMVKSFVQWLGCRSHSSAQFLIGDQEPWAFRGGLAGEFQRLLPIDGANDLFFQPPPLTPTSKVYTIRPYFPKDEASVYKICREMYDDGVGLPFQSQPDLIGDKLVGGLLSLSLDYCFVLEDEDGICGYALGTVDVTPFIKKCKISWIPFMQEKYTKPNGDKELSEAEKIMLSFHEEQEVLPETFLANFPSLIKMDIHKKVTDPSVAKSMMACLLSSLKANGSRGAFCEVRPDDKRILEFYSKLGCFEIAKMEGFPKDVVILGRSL

[9] = molecular target: Galanin receptor type 2 (Homo sapiens) (UniProt O43603); experiment: hGAL2 Cerep panel
[10] = molecular target: Nociceptin receptor (Homo sapiens) (UniProt P41146); experiment: hORL1 Cerep panel
[11] = molecular target: Mu-type opioid receptor (Homo sapiens) (UniProt P35372); details: Compound concentration 10.0 uM
Mu-type opioid receptor (Homo sapiens), sequence (P35372 whole entry): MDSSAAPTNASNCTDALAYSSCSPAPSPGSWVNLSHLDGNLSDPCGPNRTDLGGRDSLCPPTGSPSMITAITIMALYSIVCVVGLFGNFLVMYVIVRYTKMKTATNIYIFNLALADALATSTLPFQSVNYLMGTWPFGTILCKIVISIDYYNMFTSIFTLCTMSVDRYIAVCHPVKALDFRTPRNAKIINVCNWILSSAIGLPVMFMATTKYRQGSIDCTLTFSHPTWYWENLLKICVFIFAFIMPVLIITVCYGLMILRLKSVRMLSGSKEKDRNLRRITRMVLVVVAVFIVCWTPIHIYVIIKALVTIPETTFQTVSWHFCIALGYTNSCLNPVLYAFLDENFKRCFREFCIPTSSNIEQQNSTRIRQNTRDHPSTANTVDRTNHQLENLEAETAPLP

[12] = molecular target: Sigma non-opioid intracellular receptor 1 (Homo sapiens, UniProt Q99720); details: Compound concentration 10.0 uM
Sigma non-opioid intracellular receptor 1, sequence (Q99720 whole entry): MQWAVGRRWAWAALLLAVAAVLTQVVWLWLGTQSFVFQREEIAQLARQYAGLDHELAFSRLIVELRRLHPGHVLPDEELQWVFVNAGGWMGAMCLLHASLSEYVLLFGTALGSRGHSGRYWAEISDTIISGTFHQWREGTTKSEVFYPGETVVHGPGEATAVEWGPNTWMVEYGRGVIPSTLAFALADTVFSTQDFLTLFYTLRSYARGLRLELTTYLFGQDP

[13] = molecular target: 5-hydroxytryptamine receptor 2B (Homo sapiens) (UniProt P41595); details: Compound concentration 10.0 uM
5-hydroxytryptamine receptor 2B (Homo sapiens), sequence (P41595 whole entry): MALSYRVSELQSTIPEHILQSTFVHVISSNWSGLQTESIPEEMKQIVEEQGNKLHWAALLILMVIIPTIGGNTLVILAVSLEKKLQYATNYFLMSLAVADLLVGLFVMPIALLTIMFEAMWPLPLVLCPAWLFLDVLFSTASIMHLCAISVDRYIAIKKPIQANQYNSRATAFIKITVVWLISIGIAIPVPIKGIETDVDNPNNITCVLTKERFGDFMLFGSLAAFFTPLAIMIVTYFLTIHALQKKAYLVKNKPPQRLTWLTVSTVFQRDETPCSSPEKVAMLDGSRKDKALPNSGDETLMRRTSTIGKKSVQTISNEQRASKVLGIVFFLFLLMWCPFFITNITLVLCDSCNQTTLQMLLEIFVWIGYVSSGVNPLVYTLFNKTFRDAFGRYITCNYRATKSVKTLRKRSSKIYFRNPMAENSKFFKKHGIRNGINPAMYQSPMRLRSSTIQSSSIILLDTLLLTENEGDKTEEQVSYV

[14] = molecular target: T3, 5-hydroxytryptamine receptor 3A (Homo sapiens) (UniProt P46098); details: Compound concentration 10.0 uM
T3 sequence (whole entry): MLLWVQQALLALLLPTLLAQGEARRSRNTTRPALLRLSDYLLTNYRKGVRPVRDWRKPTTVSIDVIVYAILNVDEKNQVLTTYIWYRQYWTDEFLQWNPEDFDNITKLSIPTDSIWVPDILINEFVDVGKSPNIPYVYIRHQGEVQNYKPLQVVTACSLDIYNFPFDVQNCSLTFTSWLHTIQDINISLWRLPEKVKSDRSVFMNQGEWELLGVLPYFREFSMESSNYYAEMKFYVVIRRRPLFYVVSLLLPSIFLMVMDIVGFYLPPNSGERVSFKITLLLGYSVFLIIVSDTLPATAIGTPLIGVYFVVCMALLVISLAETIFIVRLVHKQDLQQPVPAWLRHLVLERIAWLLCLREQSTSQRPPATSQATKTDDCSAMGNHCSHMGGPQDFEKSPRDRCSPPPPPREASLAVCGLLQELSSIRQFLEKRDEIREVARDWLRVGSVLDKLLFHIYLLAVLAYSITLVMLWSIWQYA

[15] = molecular target: 5-hydroxytryptamine receptor 1D (Homo sapiens) (UniProt P28221); details: Compound concentration 10.0 uM
5-hydroxytryptamine receptor 1D (Homo sapiens), sequence (P28221 whole entry): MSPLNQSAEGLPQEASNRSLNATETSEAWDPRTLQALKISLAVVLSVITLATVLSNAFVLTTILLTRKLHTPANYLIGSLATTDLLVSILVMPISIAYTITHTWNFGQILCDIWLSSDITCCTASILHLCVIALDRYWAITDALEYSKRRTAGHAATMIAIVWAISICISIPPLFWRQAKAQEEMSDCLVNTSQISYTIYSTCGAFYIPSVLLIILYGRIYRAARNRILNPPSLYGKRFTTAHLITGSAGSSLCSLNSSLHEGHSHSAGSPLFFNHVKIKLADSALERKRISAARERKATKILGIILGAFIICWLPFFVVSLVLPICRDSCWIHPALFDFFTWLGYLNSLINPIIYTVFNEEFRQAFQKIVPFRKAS

[16] = molecular target: Muscarinic acetylcholine receptor M3 (Homo sapiens) (UniProt P20309); details: Compound concentration 10.0 uM
[17] = molecular target: Histamine H1 receptor (Homo sapiens) (UniProt P35367); details: Compound concentration 10.0 uM
Histamine H1 receptor (Homo sapiens), sequence (P35367 whole entry): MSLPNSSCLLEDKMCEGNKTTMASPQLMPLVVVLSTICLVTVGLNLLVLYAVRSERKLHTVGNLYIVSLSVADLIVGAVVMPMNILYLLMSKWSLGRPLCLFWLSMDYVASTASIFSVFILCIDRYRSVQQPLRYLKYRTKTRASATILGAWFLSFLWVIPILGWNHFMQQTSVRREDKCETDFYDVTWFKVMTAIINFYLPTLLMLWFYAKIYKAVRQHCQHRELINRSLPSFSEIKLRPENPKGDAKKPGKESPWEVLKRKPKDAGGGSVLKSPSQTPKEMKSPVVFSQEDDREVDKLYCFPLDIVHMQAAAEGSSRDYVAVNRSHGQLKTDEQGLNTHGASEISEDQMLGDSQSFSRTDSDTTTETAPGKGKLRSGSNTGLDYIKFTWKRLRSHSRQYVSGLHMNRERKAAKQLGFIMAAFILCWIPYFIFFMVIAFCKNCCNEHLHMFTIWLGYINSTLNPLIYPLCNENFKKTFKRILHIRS

[18] = molecular target: 5-hydroxytryptamine receptor 1B (Homo sapiens) (UniProt P28222); details: Compound concentration 10.0 uM
5-hydroxytryptamine receptor 1B (Homo sapiens), sequence (P28222 whole entry): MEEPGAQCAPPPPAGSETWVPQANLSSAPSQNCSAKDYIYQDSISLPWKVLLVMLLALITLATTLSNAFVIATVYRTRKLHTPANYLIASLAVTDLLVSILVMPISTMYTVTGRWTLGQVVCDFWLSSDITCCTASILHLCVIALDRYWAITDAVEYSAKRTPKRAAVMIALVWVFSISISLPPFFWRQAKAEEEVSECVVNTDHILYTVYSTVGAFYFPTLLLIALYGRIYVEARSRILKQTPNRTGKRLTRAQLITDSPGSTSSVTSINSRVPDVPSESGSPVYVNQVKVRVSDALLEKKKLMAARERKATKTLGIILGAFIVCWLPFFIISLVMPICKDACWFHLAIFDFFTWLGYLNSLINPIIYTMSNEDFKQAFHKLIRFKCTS

[19] = molecular target: Kappa-type opioid receptor (Homo sapiens, UniProt P41145); details: Compound concentration 10.0 uM
[20] = molecular target: Sodium-dependent noradrenaline transporter (Homo sapiens) (UniProt P23975); details: Compound concentration 10.0 uM
Sodium-dependent noradrenaline transporter (Homo sapiens), sequence (P23975 whole entry): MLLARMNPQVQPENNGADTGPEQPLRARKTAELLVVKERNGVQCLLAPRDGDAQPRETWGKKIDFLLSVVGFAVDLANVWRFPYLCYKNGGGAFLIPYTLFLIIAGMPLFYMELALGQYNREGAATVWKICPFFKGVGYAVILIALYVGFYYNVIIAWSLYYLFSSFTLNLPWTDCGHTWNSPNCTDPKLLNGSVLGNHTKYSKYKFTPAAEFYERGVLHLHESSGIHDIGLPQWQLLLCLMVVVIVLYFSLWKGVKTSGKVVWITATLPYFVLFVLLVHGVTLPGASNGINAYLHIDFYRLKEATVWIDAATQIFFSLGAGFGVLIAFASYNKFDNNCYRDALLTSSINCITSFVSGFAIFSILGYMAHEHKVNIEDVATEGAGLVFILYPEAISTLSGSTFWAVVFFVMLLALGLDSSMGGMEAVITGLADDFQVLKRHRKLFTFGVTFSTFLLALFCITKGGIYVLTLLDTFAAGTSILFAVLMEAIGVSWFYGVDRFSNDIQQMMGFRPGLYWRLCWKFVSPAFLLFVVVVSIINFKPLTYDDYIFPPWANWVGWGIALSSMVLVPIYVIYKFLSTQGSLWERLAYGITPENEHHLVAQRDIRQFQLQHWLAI

[21] = molecular target: Alpha-2C adrenergic receptor (Homo sapiens) (UniProt P18825); details: Compound concentration 10.0 uM
Alpha-2C adrenergic receptor (Homo sapiens), sequence (P18825 whole entry): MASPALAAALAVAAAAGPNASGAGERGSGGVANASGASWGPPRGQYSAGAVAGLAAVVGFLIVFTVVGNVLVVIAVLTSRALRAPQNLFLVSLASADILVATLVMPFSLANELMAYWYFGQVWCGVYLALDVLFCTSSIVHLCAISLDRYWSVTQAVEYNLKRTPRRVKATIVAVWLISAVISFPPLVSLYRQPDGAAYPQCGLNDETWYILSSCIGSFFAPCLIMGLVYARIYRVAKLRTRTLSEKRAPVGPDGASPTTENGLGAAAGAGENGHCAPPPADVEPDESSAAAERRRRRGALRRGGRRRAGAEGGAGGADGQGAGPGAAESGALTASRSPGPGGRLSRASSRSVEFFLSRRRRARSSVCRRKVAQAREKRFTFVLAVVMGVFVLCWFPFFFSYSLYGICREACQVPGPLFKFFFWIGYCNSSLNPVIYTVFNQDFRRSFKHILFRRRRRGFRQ

Row | SMILES | inhibition [2] [%] | inhibition [3] [%] | inhibition [4] [%] | inhibition [5] [%] | inhibition [6] [%] | inhibition [7] [%] | IC50 [8] | inhibition [11] [%] | inhibition [12] [%] | inhibition [13] [%] | inhibition [14] [%] | inhibition [15] [%] | inhibition [16] [%] | inhibition [17] [%] | inhibition [18] [%] | inhibition [19] [%] | inhibition [20] [%] | inhibition [21] [%] | further results
1 | CC(=O)Nc1ncc(CN2CCC[C@H](Cc3cc(C)nc(C)c3)C2)s1 [JNJ-65355394] | 8.07 | -5.53 | 11.8 | -5.16 | 9.6 | 0.63 | 0.0013 µM (active) | 12.8 | 46.5 | 6.7 | 6.87 | 11.6 | 8.4 | 44 | -2.53 | 75.1 | 12.7 | 31.9 | effect [1]: 9.45%; effect [9]: 1.4%; effect [10]: -5.7%
2 | CC(=O)Nc1nc(CN2CCC[C@H](Cc3cc(C)nc(C)c3)C2)cs1 [JNJ-73924149] | 43.5 | 8.78 | 8.67 | -8.1 | 2.58 | 8.04 | > 10 µM (not active) | 27.3 | 101 | 17.9 | 20.7 | 14.5 | -9.98 | 44.2 | 4.01 | 17.9 | 17.8 | 36.5 | 
